In US20090318375A1, “Crystalline Azithromycin L-Malate Monohydrate and Pharmaceutical Composition Containing Same” (Hanmi Pharm Co., Ltd, priority 2003, published 2009):
Where two headings read alike, the source gives them in different places.

Experiments:
[1] = Hygroscopicity of acid addition salts of azithromycin after storage; assay type: physicochemical; conditions: after 24 hours storage at 40° C. and 75% relative humidity
[2] = Moisture uptake of malate anhydrates exposed at 40° C. and 75% relative humidity; assay type: physicochemical; conditions: exposed at 40° C. and 75% relative humidity for 10 hours
Water-solubility test = assay type: physicochemical; conditions: thermodynamic from solid, 25° C., based on amount of azithromycin dissolved
Protocol: The azithromycin L-malate monohydrate of the present invention and azithromycin dihydrate were dissolved in deionized water and in phosphoric acid buffer solution (pH 7) to saturation, respectively. The water-solubility of each of the saturated solutions was analyzed by HPLC according to the procedure described in the US Pharmacopoeia, to determine the amount of azithromycin dissolved.

[3] = Heat stability test (remaining active azithromycin by HPLC); assay type: physicochemical; conditions: 60° C. and 75% relative humidity; for Amount of titrated azithromycin: sealed
Protocol: The time-dependent stability at a high temperature of the inventive azithromycin L-malate monohydrate was measured and compared with that of the known azithromycin dihydrate.

[4] = 37° C.; cited from earlier work
in vivo = conditions: beagle, dog, po, 20 mg/kg
Protocol: (§1) Specifically, twelve Marshall beagle dogs (Beijing, average weight: 9.5±0.5 kg) were divided with two groups each consisting of six dogs. Each of divided dogs was fasted for 16 hours and then orally administered with a single 20 mg/kg dose of the inventive azithromycin L-malate monohydrate (test group) or azithromycin dihydrate (control group) contained in a gelatin capsule. After administration, blood samples were periodically collected, followed by separating plasma therefrom. The azithromycin samples extracted from the plasma was subjected to LC/MS/MS analysis to measure the amount of azithromycin therein and to calculate pharmacokinetic parameters.

[5] = Pharmacokinetic test, azithromycin concentration in blood; conditions: beagle, dog, plasma, po, 20 mg/kg
Protocol: as §1

[6] = Non-hygroscopicity test (moisture content, Karl-Fisher titrator); assay type: physicochemical
Protocol: The inventive azithromycin L-malate monohydrate was continuously exposed at 25 or 40° C. and 40 to 90% relative humidity for a period of over 15 days. The moisture contents of the inventive salt measured with a Karl-Fisher titrator at storage time 0, 3, 7 and 15 days are shown in Table 5 and FIG. 5.

[7] = dog, in vivo, po, 20 mg/kg
Protocol: as §1

[8] = deionized water, water, read-out: Solubility, deionized water
[9] = phosphoric acid buffer solution, aqueous buffer, phosphoric acid buffer pH 7, read-out: Solubility, buffer solution (pH 7)

For `Cl` [Hydrochloric acid], the “Salt form (hygroscopicity)” value [1] was “Amorphous, hygroscopic”.
In the case of `CC[C@H]1OC(=O)[C@H](C)[C@@H](O[C@H]2C[C@@](C)(OC)[C@@H](O)[C@H](C)O2)[C@H](C)[C@@H](O[C@@H]2O[C@H](C)C[C@H](N(C)C)[C@H]2O)[C@](C)(O)C[C@@H](C)CN(C)[C@H](C)[C@@H](O)[C@]1(C)O.O=C(O)CC(O)C(=O)O` (racemic) [DL-malate anhydrate, Azithromycin DL-Malate Anhydrate], the “Salt form (hygroscopicity)” value [1] is reported as “Crystalline, hygroscopic^e)” and the “Moisture content increased to” value [2] is reported as at least 6%.
With Citric acid the “Salt form (hygroscopicity)” value [1] was “Amorphous, hygroscopic”.
With `CC[C@H]1OC(=O)[C@H](C)[C@@H](O[C@H]2C[C@@](C)(OC)[C@@H](O)[C@H](C)O2)[C@H](C)[C@@H](O[C@@H]2O[C@H](C)C[C@H](N(C)C)[C@H]2O)[C@](C)(O)C[C@@H](C)CN(C)[C@H](C)[C@@H](O)[C@]1(C)O` [Azithromycin dihydrate, 9-deoxo-9a-aza-9a-methyl-9a-homoerythromycin A, reference compound] the solubility (Water-solubility test; [8]) was 0.1 mg/mL, the solubility (Water-solubility test; [9]) was 5.1 mg/mL and the “Heat stability (in words)” value ([3]; 28 days) was “significant degradation”. The “Amount of titrated azithromycin” value ([3]; 7 days) was 974.6 µg/mg, the “Amount of titrated azithromycin” value ([3]; 14 days) was 975.3 µg/mg and the “Amount of titrated azithromycin” value ([3]; 21 days) was 973.2 µg/mg. For the same compound, the “Amount of titrated azithromycin” value ([3]; 28 days) was 971.6 µg/mg, the “Amount of titrated azithromycin” value ([3]; initial) was 976.5 µg/mg and the Water-solubility [4] was 1.1 mg/mL. It also gave a Cmax (in vivo) of 1950 ± 710 ng/mL, an AUC(0-t) (in vivo; AUC0-24) of 20600 ± 6640 ng·h/mL and an AUC(0-t) (in vivo; AUC0-48) of 27900 ± 9710 ng·h/mL. For the same compound, the Tmax [5] was 48 ± 18 min.
For Fumaric acid, the “Salt form (hygroscopicity)” value [1] was “Crystalline, hygroscopic”.
For `CCC1OC(=O)C(C)C(OC2CC(C)(OC)C(O)C(C)O2)C(C)C(OC2OC(C)CC(N(C)C)C2O)C(C)(O)CC(C)CN(C)C(C)C(O)C1(C)O.O=C(O)CC(O)C(=O)O` [L-malate anhydrate, Azithromycin L-Malate Anhydrate], the “Salt form (hygroscopicity)” value [1] was “Crystalline, hygroscopic^d)” and the “Increase of moisture content” value [2] was “about 2.0%”.
For `CC[C@H]1OC(=O)[C@H](C)[C@@H](O[C@H]2C[C@@](C)(OC)[C@@H](O)[C@H](C)O2)[C@H](C)[C@@H](O[C@@H]2O[C@H](C)C[C@H](N(C)C)[C@H]2O)[C@](C)(O)C[C@@H](C)CN(C)[C@H](C)[C@@H](O)[C@]1(C)O.O=C(O)C[C@H](O)C(=O)O` [Azithromycin L-malate monohydrate, azithromycin L-malate monohydrate], the “Salt form (hygroscopicity)” value [1] was “Crystalline, non-hygroscopic^c)”, the solubility (Water-solubility test; [8]) was 393 mg/mL and the solubility (Water-solubility test; [9]) was 392 mg/mL. The “Hygroscopicity (in words)” value ([6]; 25 or 40° C., 40 to 90% relative humidity, 15 days) was “largely non-hygroscopic”, the Moisture content ([6]; 40% relative humidity, 25° C., 3 days) was 1.78 wt % and the Moisture content ([6]; 40% relative humidity, 25° C., 7 days) was 1.75 wt %. For the same compound, the Moisture content ([6]; 40% relative humidity, 25° C., 15 days) was 1.73 wt %, the Moisture content ([6]; 40% relative humidity, 25° C., initial) was 1.75 wt % and the Moisture content ([6]; 60% relative humidity, 25° C., 3 days) was 1.82 wt %. It also gave a Moisture content ([6]; 60% relative humidity, 25° C., 7 days) of 1.80 wt %, a Moisture content ([6]; 60% relative humidity, 25° C., 15 days) of 1.80 wt % and a Moisture content ([6]; 60% relative humidity, 25° C., initial) of 1.75 wt %. The Moisture content ([6]; 75% relative humidity, 40° C., 3 days) was 1.80 wt %, the Moisture content ([6]; 75% relative humidity, 40° C., 7 days) was 1.82 wt % and the Moisture content ([6]; 75% relative humidity, 40° C., 15 days) was 1.85 wt %. For the same compound, the Moisture content ([6]; 75% relative humidity, 40° C., initial) was 1.75 wt %, the Moisture content ([6]; 90% relative humidity, 40° C., 3 days) was 1.87 wt % and the Moisture content ([6]; 90% relative humidity, 40° C., 7 days) was 1.85 wt %. For the same compound, the Moisture content ([6]; 90% relative humidity, 40° C., 15 days) was 1.85 wt %, the Moisture content ([6]; 90% relative humidity, 40° C., initial) was 1.75 wt % and the “Heat stability (in words)” value ([3]; 28 days) was “highly stable”. For the same compound, the “Amount of titrated azithromycin” value ([3]; 7 days) was 984.6 µg/mg, the “Amount of titrated azithromycin” value ([3]; 14 days) was 985.1 µg/mg and the “Amount of titrated azithromycin” value ([3]; 21 days) was 987.0 µg/mg. The “Amount of titrated azithromycin” value ([3]; 28 days) was 985.4 µg/mg, the “Amount of titrated azithromycin” value ([3]; initial) was 986.4 µg/mg and the “AUC0-24, T group/C group” value [7] was 1.34. For the same compound, the “AUC0-48, T group/C group” value [7] was 1.34, the “Cmax compared with azithromycin dihydrate (in words)” value [7] was “about two times higher” and the “Cmax, T group/C group” value [7] was 1.94. The “Tmax, T group/C group” value [7] was 0.75, the Cmax (in vivo) was 3780 ± 1380 ng/mL and the Tmax (in vivo) was 36 ± 12 min. The AUC(0-t) (in vivo; AUC0-24) was 27600 ± 6860 ng·h/mL and the AUC(0-t) (in vivo; AUC0-48) was 37300 ± 8830 ng·h/mL.
For Maleic acid, the “Salt form (hygroscopicity)” value [1] was “Amorphous, hygroscopic”.
With `O=C(O)[C@H](O)[C@@H](O)C(=O)O` [L-Tartaric acid] the “Salt form (hygroscopicity)” value [1] was “Crystalline, hygroscopic”.
For 2-naphthalene sulfonic acid, the “Salt form (hygroscopicity)” value [1] was “Crystalline, hygroscopic”.
With Azithromycin D-Malate Anhydrate the “Salt form (hygroscopicity)” value [1] was “Crystalline, hygroscopic^f)” and the “Increase of moisture content” value [2] was at least 8%.
With `O=S(=O)(O)O` [Sulfuric acid] the “Salt form (hygroscopicity)” value [1] was “Amorphous, hygroscopic”.
With `Br` [Hydrobromic acid] the “Salt form (hygroscopicity)” value [1] was “Amorphous, hygroscopic”.
For `Cc1ccc(S(=O)(=O)O)cc1` [p-toluene sulfonic acid], the “Salt form (hygroscopicity)” value [1] was “Amorphous, hygroscopic”.
